Legend:
[1] = Half life of the compound
[2] = biological target: T1, Alkaline phosphatase, tissue-nonspecific isozyme (Bos taurus, UniProt P09487); assay: Drug level in glycine buffer treated with Sodium (((5bS,6aS,7aR,8R,8aS,9aS,9bS,10aS,10bS)-8a-Isopropyl-10b-methyl-3-oxo-1,2,3,5,5b,6,6a,8,8a,9a,9b,10b-dodecahydrotris-(oxireno)[2',3':4b,5;'',3'':6,7;2''',3''':8a,9]phenanthro[1,2-c]furan-8-yl)oxy)methyl Phosphate at pH 9.8 in presence of bovine intestinal mucosal alkaline phosphatase; conditions: cattle, isolated protein
T1 sequence (P09487 whole entry): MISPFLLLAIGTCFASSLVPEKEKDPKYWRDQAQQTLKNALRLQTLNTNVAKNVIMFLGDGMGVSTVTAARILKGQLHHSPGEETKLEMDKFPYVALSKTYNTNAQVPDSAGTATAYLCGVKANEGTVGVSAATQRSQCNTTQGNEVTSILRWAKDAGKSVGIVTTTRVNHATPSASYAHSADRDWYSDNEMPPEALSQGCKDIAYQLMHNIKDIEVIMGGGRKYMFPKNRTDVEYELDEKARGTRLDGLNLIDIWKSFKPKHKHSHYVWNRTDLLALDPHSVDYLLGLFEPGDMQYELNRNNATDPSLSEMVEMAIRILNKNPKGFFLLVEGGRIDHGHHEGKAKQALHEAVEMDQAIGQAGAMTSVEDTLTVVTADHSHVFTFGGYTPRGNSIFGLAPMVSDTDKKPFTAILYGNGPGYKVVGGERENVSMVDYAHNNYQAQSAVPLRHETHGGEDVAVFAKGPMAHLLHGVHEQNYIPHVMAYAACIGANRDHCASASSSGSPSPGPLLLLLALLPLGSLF

SMILES | half-life [1] [min] | Drug metabolism [2]
C=O [FORMALDEHYDE] | 1.5 | metabolite_detected
CC(C)[C@]12O[C@H]1[C@@H]1O[C@]13[C@]1(O[C@H]1C[C@H]1C4=C(CC[C@@]13C)C(=O)OC4)[C@@H]2O [TRIPTOLIDE] |  | metabolite_detected

Reference: ChEMBL document CHEMBL3739335, “Phosphonooxymethyl Prodrug of Triptolide: Synthesis, Physicochemical Characterization, and Efficacy in Human Colon Adenocarcinoma and Ovarian Cancer Xenografts” (J Med Chem, 2015)
